Wirkungsgrad data for 3 compounds are collected here from patent publication EP0863702B1, “FUNGICIDAL MIXTURE” (BASF AKTIENGESELLSCHAFT, priority 1995, dated 1997).

The test system of test [1] is Botrytis cinerea. The test can be described thus: Efficacy against Botrytis cinerea on paprika seedlings (protective spray). Format: in vivo. The settings on record: single active, Paprikasämlinge, 5 Tage, 22 bis 24°C. The procedure:
Paprikasämlinge der Sorte "Neusiedler Ideal Elite" wurden, nachdem sich 4 bis 5 Blätter gut entwickelt hatten, mit wäßrigen Suspensionen, die 80 % Wirkstoff und 20 % Emulgiermittel in der Trockensubstanz enthielten, tropfnaß gespritzt. Nach dem Antrocknen des Spritzbelages wurden die Pflanzen mit einer Konidienaufschwemmung des Pilzes Botrytis cinerea besprüht und bei 22 bis 24°C in eine Kammer mit hoher Luftfeuchtigkeit gestellt. Nach 5 Tagen hatte sich die Krankheit auf den unbehandelten Kontrollpflanzen so stark entwickelt, daß die entstandenen Blattnekrosen den überwiegenden Teil der Blätter bedeckten.
(§1) Die visuell ermittelten Werte für den Prozentanteil befallener Blattfläche wurden in Wirkungsgrade als % der unbehandelten Kontrolle umgerechnet. Wirkungsgrad 0 ist gleicher Befall wie in der unbehandelten Kontrolle, Wirkungsgrad 100 ist 0 % Befall. Die zu erwartenden Wirkungsgrade für Wirkstoffkombinationen wurden nach der Colby-Formel ermittelt (S. R. Colby "Calculating synergistic and antagonistic responses of herbicide combinations", Weeds 15, Seiten 20 bis 22 (1967)) und mit den beobachteten Wirkungsgraden verglichen.

The subject of test [2] is Botrytis cinerea. Briefly: Efficacy against Botrytis cinerea on slices of green paprika fruit. The class given is in vivo. To be noted: single active, Paprikaschoten-Scheiben, 4 Tage, 18°C. The procedure:
Scheiben von grünen Paprikaschoten wurden mit wäßriger Wirkstoffaufbereitung, die 80 % Wirkstoff und 20 % Emulgiermittel in der Trockensubstanz enthielt, tropfnaß besprüht. 2 Stunden nach dem Antrocknen des Spritzbelages wurden die Fruchtscheiben mit einer Sporensuspension von Botrytis cinerea, die 1,7 x 10^6 Sporen pro ml einer 2 %igen Biomalzlösung enthielt, inokuliert. Die inokulierten Fruchtscheiben wurden anschließend in feuchten Kammern bei 18°C für 4 Tage aufgestellt. Dann erfolgte visuell die Auswertung der Botrytis-Entwicklung auf den befallenen Fruchtscheiben.
as §1

Take `CC1(C(=O)Nc2ccc(O)c(Cl)c2Cl)CCCCC1` [(C)]: the Wirkungsgrad with Botrytis cinerea [1] (25 ppm in der Spritzbrühe) is 35 % der unbehandelten Kontrolle; with Botrytis cinerea [1] (100 ppm in der Spritzbrühe), 70 % der unbehandelten Kontrolle; in the test with Botrytis cinerea [2] (25 ppm in der Spritzbrühe), 30 % der unbehandelten Kontrolle; in the test with Botrytis cinerea [2] (100 ppm in der Spritzbrühe), 25 % der unbehandelten Kontrolle.

Consider `CC(C)(CCl)C(=O)Nc1ccc(O)c(Cl)c1Cl` [(A)], for which the results for the Wirkungsgrad with Botrytis cinerea [1] (25 ppm in der Spritzbrühe), in the test with Botrytis cinerea [1] (100 ppm in der Spritzbrühe) and in the test on Botrytis cinerea [2] (100 ppm in der Spritzbrühe) were 40 % der unbehandelten Kontrolle, 84 % der unbehandelten Kontrolle and 20 % der unbehandelten Kontrolle, respectively.

With `CC1(C(=O)Nc2ccc(O)c(Cl)c2Cl)CC2CCC1C2` (centres unmarked) [(B)], the Wirkungsgrad is 65 % der unbehandelten Kontrolle in the test with Botrytis cinerea [1] (25 ppm in der Spritzbrühe), 80 % der unbehandelten Kontrolle with Botrytis cinerea [1] (100 ppm in der Spritzbrühe), 10 % der unbehandelten Kontrolle in the test with Botrytis cinerea [2] (25 ppm in der Spritzbrühe) and 25 % der unbehandelten Kontrolle in the test with Botrytis cinerea [2] (100 ppm in der Spritzbrühe).
